Columns and labels:
SJ-GBM2-luc tumors = assay: Intracranial orthotopic SJ-GBM2-luc xenograft: bioluminescence and survival; type: in vivo, mice
Method: All animal experiments were performed in accordance with the use of animals in research and approved by IACUC. SJ-GBM2 cells stably expressing luciferase gene (pGL4.51 [luc2/CMV/Neo], Promega) were generated by a chemical transfection method (FuGENE HD, Promega) in the presence of G418 antibiotics (GoldBio). 4-5 weeks athymic mice were purchased from The Jackson Laboratory. SJ-GBM2-luc cell lines was maintained to 70% confluency and checked for their luminescence activity. Similar to the implantation method described previously, cells were resuspended in PBS at a final concentration of 10^6 cells/3 μl. Following anesthesia, a midline incision was made on the calvarium, extending from bregma to lambda sutures. At a position 2 mm posterior to bregma and 2 mm lateral to the […], a 3-mm hole was made in the skull. A 26-gauge Hamilton syringe was inserted into the hole, and 3 μl of 10^6 cells was injected slowly. The injection site was covered with sterile bone wax and sutured. As the first set of experiment, mice were randomly divided into the experimental groups and the dose finding studies were conducted with AmiR20-p28 at 0.1, and 1 mg/kg. AmiR20-p28 was administered every other day three times a week i.v. via the tail vein (200 μl/injection). As the second set of experiment, mice were randomly divided into the groups of PBS or AmiR20-p28 at 1 and 5 mg/kg (N=5). […] Mice were sacrificed based on the following humane endpoints such as >20% weight loss, the presence of labored respiration, abnormal behavior (e.g., paralysis), and loss of the ability to ambulate.
D-Luciferin potassium salt (GoldBio, #LUCK-100) at 150 mg/kg was injected intraperitoneally into the mice. Mice were anesthetized in a chamber with isoflurane/oxygen and positioned for bioluminescent imaging using a Spectral Lago X imaging system (Accela, Czech Republic). A series of images was acquired over a duration up to 30 min after the time of D-luciferin injection. Aura software (version 3.2) was used to compute regions of interest (ROIs) and integrate the total bioluminescence signal in each ROI. Data were analyzed based on radiance (photons/second/cm^2/steradian) in the ROIs. The radiance values were plotted for each animal in the experimental group to form the tumor growth curve. Overall survival was also evaluated based on their survival period (mice died due to disease or were sacrificed based on the humane endpoints criteria). For X-ray imaging, the anesthetized mice were positioned, and a Spectral Lago X imaging system was used to take images. Aura software was used to merge the images taken with X-ray and bioluminescent systems.

[1] = tested on: SJ-GBM2 cells, CHLA-200 cells and astrocytes; assay: Cellular entry by confocal microscopy; type: cell-based, human; settings: 20 μM Alexa Fluor labeled, 2 hr, 37° C.; pGBM cells vs normal astrocytes
Method: p28 or AmiR20-p28 were dissolved in PBS mixed with Alexa Fluor 568 dye (Invitrogen) at a 1:2 peptide/dye ratio 37. Sodium bicarbonate (pH 8.5) was added and incubated at 4° C. with continuous stirring. Alexa Fluor 568 labeled p28 and AmiR20-p28 were dialyzed against cold-PBS using Slide-A-Lyzer Dialysis Cassettes (Pierce Biotechnology). Similarly, p28 was labeled with ICG as described previously.
SJ-GBM2 cells, CHLA-200 cells and astrocytes (2×10^4 cells/well) were cultured on glass slides placed in 24-well plates. After overnight culture, the cells were washed with PBS and incubated with 20 μM Alexa Fluor 568-labeled p28 peptide in medium (5% FBS and without phenol red) for 2 hr at 37° C. Cells were fixed with 2% formalin for 10 min. After washing, slides were prepared and mounted with Vectashield with DAPI (Vector Laboratories, Catalog #94010). Slides were examined by an LSM 710 confocal laser scanning microscope (Zeiss). Images were processed using ZEN software (ZEISS ZEN Lite). As for a GSC marker, the slides were first incubated with Alexa Fluor 568-labeled AmiR20-p28 for 2 hr at 37° C. Cells were fixed with 2% formalin for 10 min. After washing, slides were incubated with blocking buffer for 1 hr at room temperature, followed by consecutive staining with anti-CD133 antibody (1:500, R&D Systems FAB11331G). Slides were washed and mounted with Vectashield containing DAPI. […]

CHLA-200 cells = assay: Annexin V/PI flow cytometric apoptosis assay, CHLA-200; type: cell-based, human; settings: 10 nM, 24 h
Method: (§1) Cells were seeded into 10-cm dishes and cultured overnight. Then, the cells were treated with 10 nM antisense miR-20a alone, p28 alone or AmiR20-p28 for 24 hr. Cells were washed with 1×PBS, detached with TrypleE (Invitrogen). and collected by centrifugation. Cells were washed and resuspended with 1× Annexin binding buffer (Life Technologies, catalog #V13242), and the cell density was maintained at 10^6 cells/ml. Subsequently, 5 μl of Annexin-V was added to 100 μl of the cell suspension, and the mixture was incubated for 15 min at room temperature. The cells were washed and incubated with 5 μl of PI for an additional 15 min on ice, washed and resuspended in 200 μl of buffer. Cells without treatment were used as controls. After washing, cells were subjected to flow cytometry (Gallios flow cytometer) and analyzed with Kaluza software to give the proportions of dead (top left quadrant), late apoptotic (top right quadrant), early apoptotic (bottom right quadrant) and viable (bottom left quadrant) cells.

LN-229 cells = assay: CCK-8 cell viability assay, LN-229; type: cell-based, human; settings: 24 hr
Method: (§2) Cell viability was evaluated by a CCK-8 assay (Dojindo, Japan). Cells were seeded at a density of 4,000 cells per well in 100 μl of growth medium in 96-well plates and grown overnight. Then, the cells were exposed to antisense miR-20a alone, p28 alone or negative control or AmiR20-p28 over a range of concentrations and incubated for 24 hr. According to the manufacturer's instructions, 10 μl of CCK-8 solution was added to each well, followed by incubation for 1 hr at 37° C. The absorbance at 450 nm was determined by a multiplate reader.
(§3) Cell viability (%)=Abs(sample)−Abs(blank)/Abs(no treatment)−Abs(blank)×100

[2] = tested on: 3D Human Blood Brain Barrier Model
Method: Permeability experiments were carried out in a 3D Human Blood Brain Barrier Model kit (Alphabioregen, Catalog #EP010). The BBB kits were activated following the manufacturer's instructions. Briefly, the BBB model was thawed using BBB growth medium (#BBB-GM001) and incubated overnight with fresh BBB growth medium. The model was incubated with Endo-Neuro-Pharmaceuticals medium (#NMBBB001) for 3 days. AmiR20-p28 was prepared in assay buffer (Dulbecco's PBS containing CaCl2 and MgCl4, 100 mM HEPES, pH 7.0, 25 mM D-glucose). The permeability of AmiR20-p28 was measured in two directions: apical to basolateral (A-B) and basolateral to apical (B-A). The apical side represented the blood, and the basolateral side represented the brain tissue. For transport, the inserts from the BBB wells were transferred to another well containing prewarmed assay buffer. Depending on the direction, the medium in the donor compartment of the BBB model was replaced with AmiR20-p28. The plate was incubated for 30 min at 37° C. Samples were then collected from the donor and acceptor compartments and analyzed by real-time PCR. The concentrations of AmiR20-p28 in the compartments were calculated based on a standard curve developed with AmiR20-p28 at 1, 10, 100 and 1,000 nM and its relative Ct value obtained from real-time PCR. […]

astrocytes = assay: Annexin V/PI flow cytometric apoptosis assay, astrocytes; type: cell-based, human; settings: 10 nM, 24 h
Method: as §1

normal human astrocytes = assay: CCK-8 cell viability assay, normal human astrocytes; type: cell-based; settings: 24 hr
Method: as §2, §3

[3] = Example 6, 1 mg/kg i.v., late phase

## AmiR20-p28: BBB-permeable tumor-navigating CPP p28 (Cys-p28) covalently linked to 2′ O-methyl antisense miR-20a (5′-maleimide)
SJ-GBM2-luc tumors; 1 and 5 mg/kg, continued or stopped treatment after four weeks, additional ~two months
  tumor recurrence: neither the 1 mg/kg nor the 5 mg/kg dose groups exhibited any signs of tumor recurrence
SJ-GBM2-luc tumors; 1 or 5 mg/kg i.v. 3× weekly, vs PBS or 0.1 mg/kg
  tumor growth (bioluminescence): significant inhibition of tumor growth
SJ-GBM2-luc tumors; Example 6, 1 mg/kg i.v., early phase
  overall survival rate: 100%
SJ-GBM2-luc tumors; Example 6, 1 mg/kg i.v., early phase, start 10 days after cell injection
  tumor growth (bioluminescence): complete repression of tumor
SJ-GBM2-luc tumors; [3]
  mice survived at day 49: 80%
  overall survival rate: 40%
SJ-GBM2-luc tumors; Example 6, 1 mg/kg i.v., late phase, start 40 days after cell injection
  tumor growth (bioluminescence): tumor progression was observed
SJ-GBM2-luc tumors; Example 6, 1 mg/kg i.v., middle phase
  overall survival rate: 80%
SJ-GBM2-luc tumors; Example 6, 1 mg/kg i.v., middle phase, start 20 days after cell injection
  tumor growth (bioluminescence): sustained suppression of the tumor burden
SJ-GBM2-luc tumors; Example 7, 1 mg/kg i.v., early phase, 10 days after cell injection
  tumor growth (bioluminescence): complete repression of tumor
SJ-GBM2-luc tumors; Example 7, 1 mg/kg i.v., late phase, 42 days after cell injection
  tumor growth (bioluminescence): tumor progression
SJ-GBM2-luc tumors; Example 7, 1 mg/kg i.v., middle phase, 21 days after cell injection
  tumor growth (bioluminescence): sustained suppression of tumor growth
SJ-GBM2-luc tumors; Example 7, 1 mg/kg, late phase
  overall survival probability: 60%
SJ-GBM2-luc tumors; Example 7, 1 mg/kg, vs PBS and 0.1 mg/kg
  tumor growth (bioluminescence): significant repression in tumor growth
[1]
  cellular entry (confocal images): preferential entry
CHLA-200 cells
  apoptotic cells increased by: 14%
LN-229 cells
  IC50: 170 nM
LN-229 cells; compared to pGBM
  effect on cell viability: less extensive
[2]
  efflux Papp (B-A): 0.95 ×10⁻⁶ cm/s
  influx Papp (A-B): 4.39 ×10⁻⁶ cm/s
astrocytes
  apoptotic cells after treatment: 0.5%
Normal human astrocytes
  effect on cell viability: negligible

Reference: patent US20260193647A1, “MIRNA-BASED CANCER THERAPY WITH A TUMOR-NAVIGATING PEPTIDE” (The Board of Trustees of the Universities of Illinois, priority 2022, published 2026)
